In patent publication US12606561B2, “Substituted pyrazolo[1,5-a][1,3,5]triazines as CDK inhibitors” (QURIENT CO., LTD., priority 2018, dated 2026):

Experiments:
[1] = target: T1, CDK5/p25 (Homo sapiens, UniProt Q00535); assay: Enzymatic assay for CDK5 (LANCE Ultra kinase assay, FRET based); assay type: biochemical; settings: ATP at Km
T1 construct: purchased Invitrogen PR8543B
Summary of the method: (§1)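 TR-FRET kinase assay at ATP Km with ULight-MBP peptide (68 nM) and Eu-anti-phospho-MBP antibody; CDK2/Cyclin A at […], CDK5/p25 at […]. 8-dose 4-fold compound dilutions; 60 min kinase reaction at 23° C., EDTA stop, 60 min detection, read at 615/665 nm.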

[2] = target: T2, CDK2/Cyclin A (Homo sapiens, UniProt P24941); assay: Enzymatic assay for CDK2 (LANCE Ultra kinase assay, FRET based); assay type: biochemical; settings: ATP at Km
T2 construct: purchased Invitrogen PV6290
Summary of the method: as §1

[3] = test system: MV4-11; assay: Cellular MV4-11 viability assay (CellTiter-Glo, 72 hours); assay type: cell-based; settings: Homo sapiens; MV4-11 cells
Summary of the method: (§2)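 CellTiter-Glo luminescence measured viability after 72 h of compound exposure (0.0015–10 uM; DMSO below 0.1%) at 37 °C, 5% CO2, run in duplicate. Dosing began 24 h post-seeding in RPMI-1640/10% FBS at 1×10^4 (MV4-11), 5×10^3 (OVCAR-3) or 1×10^3 (A2780) cells/well.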

[4] = target: T3, CDK1/Cyclin B (Homo sapiens, UniProt P06493); assay: Enzymatic assay for CDK1 (LANCE Ultra kinase assay, FRET based); assay type: biochemical; settings: ATP at Km; read-out: CDK1 enzymatic activity IC50
T3 construct: purchased Invitrogen PR4768C
Summary of the method: (§3)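 Purified CDK7/Cyclin H/MNAT1 or CDK1/Cyclin B complexes were tested for inhibition at Km ATP. Phosphorylation of a ULight-labelled peptide was detected by FRET with a Europium anti-phospho antibody (LANCE Ultra).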

[5] = test system: A2780; assay: A2780 viability assay (CellTiter-Glo, 72 hours); assay type: cell-based; settings: Homo sapiens; A2780 cells
Summary of the method: as §2

[6] = test system: OVCAR-3; assay: OVCAR-3 viability assay (CellTiter-Glo, 72 hours); assay type: cell-based; settings: Homo sapiens; OVCAR-3 cells
Summary of the method: as §2

[7] = target: T4, CDK7/Cyclin H/MNAT1 (Homo sapiens, UniProt P50613); assay: Enzymatic assay for CDK7 (LANCE Ultra kinase assay, FRET based); assay type: biochemical; settings: for IC50: ATP at Km
T4 construct: purchased Invitrogen PR6749B
Summary of the method: as §3

T1 sequence (Q00535 whole entry): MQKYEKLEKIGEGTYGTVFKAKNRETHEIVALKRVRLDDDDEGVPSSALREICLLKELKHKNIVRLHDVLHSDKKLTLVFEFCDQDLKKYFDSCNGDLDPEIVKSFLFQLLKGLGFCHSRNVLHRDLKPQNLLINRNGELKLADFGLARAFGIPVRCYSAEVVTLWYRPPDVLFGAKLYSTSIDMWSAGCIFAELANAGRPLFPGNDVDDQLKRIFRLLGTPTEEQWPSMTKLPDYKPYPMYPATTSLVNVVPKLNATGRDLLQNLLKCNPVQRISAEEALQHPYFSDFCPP
T1 sequence (Q15078 99-307 partner limits assumed): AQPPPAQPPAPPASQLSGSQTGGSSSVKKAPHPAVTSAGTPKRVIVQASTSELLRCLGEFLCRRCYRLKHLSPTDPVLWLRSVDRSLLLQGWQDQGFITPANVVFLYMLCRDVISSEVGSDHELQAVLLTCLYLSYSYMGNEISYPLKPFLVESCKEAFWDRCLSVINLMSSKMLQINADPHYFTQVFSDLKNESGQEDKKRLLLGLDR
T3 sequence (P06493 whole entry): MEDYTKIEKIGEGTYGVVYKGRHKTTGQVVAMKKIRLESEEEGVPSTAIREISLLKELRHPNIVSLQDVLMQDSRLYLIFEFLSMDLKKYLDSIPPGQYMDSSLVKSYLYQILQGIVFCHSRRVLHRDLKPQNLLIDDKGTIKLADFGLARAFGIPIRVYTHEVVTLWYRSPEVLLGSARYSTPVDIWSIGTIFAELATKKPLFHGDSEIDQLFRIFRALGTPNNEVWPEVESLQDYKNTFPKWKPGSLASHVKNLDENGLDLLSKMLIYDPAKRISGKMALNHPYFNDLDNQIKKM
T3 sequence (P14635 whole entry partner): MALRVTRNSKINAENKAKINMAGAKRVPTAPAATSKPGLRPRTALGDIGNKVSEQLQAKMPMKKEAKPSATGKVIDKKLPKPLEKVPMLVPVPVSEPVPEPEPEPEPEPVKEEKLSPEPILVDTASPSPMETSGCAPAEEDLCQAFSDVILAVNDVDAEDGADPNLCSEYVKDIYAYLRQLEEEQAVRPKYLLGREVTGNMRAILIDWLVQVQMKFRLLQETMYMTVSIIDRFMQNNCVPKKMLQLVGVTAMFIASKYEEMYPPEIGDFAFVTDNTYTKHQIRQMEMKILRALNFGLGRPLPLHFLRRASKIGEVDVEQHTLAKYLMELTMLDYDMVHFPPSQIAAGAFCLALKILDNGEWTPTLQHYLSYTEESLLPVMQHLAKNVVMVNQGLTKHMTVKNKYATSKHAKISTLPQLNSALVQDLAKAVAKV
T4 sequence (P50613 whole entry): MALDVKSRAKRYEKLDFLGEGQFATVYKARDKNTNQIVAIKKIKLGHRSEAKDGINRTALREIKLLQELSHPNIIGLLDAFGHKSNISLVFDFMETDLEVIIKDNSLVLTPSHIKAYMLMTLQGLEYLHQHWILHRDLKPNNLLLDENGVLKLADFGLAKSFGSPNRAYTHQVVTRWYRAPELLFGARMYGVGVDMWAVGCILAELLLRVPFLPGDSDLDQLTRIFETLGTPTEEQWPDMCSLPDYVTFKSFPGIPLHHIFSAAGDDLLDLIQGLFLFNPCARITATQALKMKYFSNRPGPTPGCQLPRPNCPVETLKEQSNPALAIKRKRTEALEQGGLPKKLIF
T4 sequence (P51946 whole entry partner): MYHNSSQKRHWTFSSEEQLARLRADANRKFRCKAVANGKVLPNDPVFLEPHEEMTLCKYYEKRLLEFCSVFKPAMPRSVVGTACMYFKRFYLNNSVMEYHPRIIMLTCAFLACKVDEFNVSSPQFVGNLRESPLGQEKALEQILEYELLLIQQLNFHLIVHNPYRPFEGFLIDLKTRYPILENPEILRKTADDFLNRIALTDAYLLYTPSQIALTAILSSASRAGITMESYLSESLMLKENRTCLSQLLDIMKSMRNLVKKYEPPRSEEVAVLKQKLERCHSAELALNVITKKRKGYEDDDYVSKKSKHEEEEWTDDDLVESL
T4 sequence (P51948 whole entry partner): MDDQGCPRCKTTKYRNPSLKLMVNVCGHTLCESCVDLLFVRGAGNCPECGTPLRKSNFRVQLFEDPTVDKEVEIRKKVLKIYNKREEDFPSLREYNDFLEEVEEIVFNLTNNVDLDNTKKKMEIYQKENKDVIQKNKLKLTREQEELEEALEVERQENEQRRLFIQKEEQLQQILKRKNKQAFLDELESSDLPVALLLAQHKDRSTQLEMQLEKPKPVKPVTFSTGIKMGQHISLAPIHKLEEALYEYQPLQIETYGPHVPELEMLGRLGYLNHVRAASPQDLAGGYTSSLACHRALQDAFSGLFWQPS

| Structure (SMILES) | IC50 [1] [nM] | IC50 [2] [nM] | IC50 [3] [nM] | IC50 [4] [nM] | IC50 [5] [nM] | IC50 [6] [nM] | IC50 [7] [nM] | CDK1/CDK7: Selectivity of CDK7 inhibition over CDK1 inhibition [7] | CDK2/CDK7: Selectivity of CDK7 inhibition over CDK2 inhibition [7] | CDK5/CDK7: Selectivity of CDK7 inhibition over CDK5 inhibition [7] |
| --- | --- | --- | --- | --- | --- | --- | --- | --- | --- | --- |
| CC(C)c1cnn2c(NCc3ccccc3-c3nccc4cc(NC(=O)/C=C/CN(C)C)ccc34)nc(N3CCNCC3)nc12 [Compound 59] | > 1000 | > 1000 | < 1000 | > 1000 | < 1000 | < 1000 | < 100 | A (A indicates [fold] > 500) | A (A indicates [fold] > 500) | A (A indicates [fold] > 500) |
| C=CC(=O)Nc1ccc2c(-c3ccccc3CNc3nc(NC[C@H]4CCNC[C@@H]4O)nc4c(C(C)C)cnn34)nccc2c1 [Compound 60] | > 1000 | > 1000 | < 1000 | > 1000 | < 1000 | < 1000 | < 100 | A (A indicates [fold] > 500) | A (A indicates [fold] > 500) | A (A indicates [fold] > 500) |
| COC1CCN(c2nc(NCc3ccccc3-c3nccc4cc(NC(=O)/C=C/CN(C)C)ccc34)n3ncc(C(C)C)c3n2)CC1 [Compound 61] | > 1000 | > 1000 | < 1000 | > 1000 | < 1000 | < 1000 | < 100 | A (A indicates [fold] > 500) | A (A indicates [fold] > 500) | A (A indicates [fold] > 500) |
| CC(C)c1cnn2c(NCc3ccccc3-c3nccc4cc(NC(=O)/C=C/CN(C)C)ccc34)nc(NC3CCNCC3)nc12 [Compound 63] | > 1000 | > 1000 | < 1000 | > 1000 | 1000 to 10000 | 1000 to 10000 | < 100 | A (A indicates [fold] > 500) | A (A indicates [fold] > 500) | A (A indicates [fold] > 500) |
| C=C(F)C(=O)Nc1ccc2c(-c3ccccc3CNc3nc(NC[C@H]4CCNC[C@@H]4O)nc4c(C(C)C)cnn34)nccc2c1 [Compound 64] | > 1000 | > 1000 | < 1000 | > 1000 | < 1000 | < 1000 | < 100 | A (A indicates [fold] > 500) | A (A indicates [fold] > 500) | A (A indicates [fold] > 500) |
| CC(C)c1cnn2c(NCc3ccccc3-c3nccc4cc(NC(=O)C5=CCCC5)ccc34)nc(NC[C@H]3CCNC[C@@H]3O)nc12 [Compound 65] | > 1000 | > 1000 | < 1000 | > 1000 | < 1000 | < 1000 | < 100 | A (A indicates [fold] > 500) | A (A indicates [fold] > 500) | A (A indicates [fold] > 500) |
| C=C(C)C(=O)Nc1ccc2c(-c3ccccc3CNc3nc(NC[C@H]4CCNC[C@@H]4O)nc4c(C(C)C)cnn34)nccc2c1 [Compound 66] | > 1000 | > 1000 | < 1000 | > 1000 | < 1000 | < 1000 | < 100 | A (A indicates [fold] > 500) | A (A indicates [fold] > 500) | A (A indicates [fold] > 500) |
| C=CC(=O)Nc1cccc2ccc(-c3cccc(C)c3CNc3nc(NC[C@H]4CCNC[C@@H]4O)nc4c(C(C)C)cnn34)nc12 [Compound 67] | > 1000 | > 1000 | < 1000 | > 1000 | < 1000 | < 1000 | < 100 | A (A indicates [fold] > 500) | A (A indicates [fold] > 500) | A (A indicates [fold] > 500) |
| C/C=C/C(=O)Nc1ccc2c(-c3ccccc3CNc3nc(NC[C@H]4CCNC[C@@H]4O)nc4c(C(C)C)cnn34)nccc2c1 [Compound 68] | > 1000 | > 1000 | < 1000 | > 1000 | < 1000 | < 1000 | < 100 | A (A indicates [fold] > 500) | A (A indicates [fold] > 500) | A (A indicates [fold] > 500) |
| C/C=C/C(=O)Nc1ccc2c(-c3ccccc3CNc3nc(N4CCNCC4)nc4c(C(C)C)cnn34)nccc2c1 [Compound 71] | > 1000 | > 1000 | < 1000 | > 1000 | < 1000 | < 1000 | < 100 | B (B indicates 50 < [fold] ≤ 500) | B (B indicates 50 < [fold] ≤ 500) | B (B indicates 50 < [fold] ≤ 500) |
| C/C=C/C(=O)Nc1ccc2c(-c3ccccc3CNc3cc(NC[C@H]4CCNC[C@@H]4O)nc4c(C(C)C)cnn34)nccc2c1 [Compound 72] | > 1000 | > 1000 | < 1000 | > 1000 | < 1000 | < 1000 | < 100 | A (A indicates [fold] > 500) | A (A indicates [fold] > 500) | A (A indicates [fold] > 500) |
| C/C=C/C(=O)Nc1cccc2cc(-c3cccc(C)c3CNc3nc(NC[C@H]4CCNC[C@@H]4O)nc4c(C(C)C)cnn34)[nH]c12 [Compound 73] | > 1000 | > 1000 | < 1000 | > 1000 | 1000 to 10000 | 1000 to 10000 | < 100 | A (A indicates [fold] > 500) | A (A indicates [fold] > 500) | B (B indicates 50 < [fold] ≤ 500) |
| C/C=C/C(=O)Nc1ccc2c(ccn2-c2ccccc2CNc2nc(NC[C@H]3CCNC[C@@H]3O)nc3c(C(C)C)cnn23)c1 [Compound 74] | 100 to 1000 | > 1000 | < 1000 | > 1000 | < 1000 | < 1000 | < 100 | B (B indicates 50 < [fold] ≤ 500) | B (B indicates 50 < [fold] ≤ 500) | B (B indicates 50 < [fold] ≤ 500) |
